# In patent US11293870B2, “Vital stain” (Mie University, priority 2013, dated 2022):
# Entries after “also recorded” stand apart in the source; their conditions may differ. Where two headings read alike, the source gives them in different places.
# What was measured:
# [1] = system: epithelial cells/adenocytes and connective tissue/capillaries; assay: Preferential staining of epithelial cells/adenocytes or connective tissue/capillaries; format: in vivo, mouse; conditions: 5 mg/ml for curcumin, 1 mg/ml for all other dyes
# Procedure: A metal ring (outer diameter: 16 millimeters, inner diameter, 6 millimeters) was placed on a laboratory stage, and a rapid bonding adhesive (AronAlpha) was coated over the entire periphery of the ring surface on one side. Forceps were used to hold the rapid bonding adhesive-coated metal ring with the adhesive-coated surface facing downward, and it was set on the pronase-treated mucosal surface. During a period of about 5 minutes, the metal ring became anchored to the mucosa with the rapid bonding adhesive, and the region where the dye compound was to be applied was rinsed with PBS.
# In order to avoid drying of the mucosal surface, a curcumin stock solution or sulfuretin stock solution diluted with physiological saline (PBS) (see Tables 1 to 3 for the dilution factors) was added dropwise onto the pronase-treated mucosal surface, and after allowing it to stand for 1 minute, it was rinsed 3 times with PBS, a cover glass was placed over the metal ring, and the objective lens of a multiphoton laser microscope (FV1000 MPE by Olympus Corp.) was brought near to the top of the cover glass for image observation.
# The procedure from administration of the dye compound to observation was conducted as described above under “Evaluation of stainability” (same hereunder). Also, the administered concentration of dye to the mucosal surface was 5 mg/ml for curcumin as Dye No. 1, and 1 mg/ml for all of the other dyes.
# [2] = cited from earlier work
# [3] = system: cancer lesion site versus normal mucosa of large intestine; assay: Comparison of staining patterns in normal site and cancer tumor site of large intestine; format: in vivo, mouse; conditions: for Staining of cancer lesion sites compared with normal mucosa: Example 1, regardless of pronase treatment of the mucosal surface; for Staining of cancer lesion site compared with normal mucosa: Example 3
# Procedure: Drinking water containing 2% (w/v) dextran sodium sulfate (DSS) was given to 8-week-old C57B6 mice (male, approximately 20 g) for 7 days. After intraperitoneal injection of 0.2 ml of 5% chloral hydrate for anesthesia, the mouse abdominal wall was incised vertically to about 1 cm, and the gastrointestinal tract was raised over the abdominal wall to about 1 cm. Blood flow to the gastrointestinal tract was maintained during this time by the blood vessel flowing into the mesenteric attachment site. The gastrointestinal tract was incised vertically to about 1 cm on the opposite side of the mesenteric attachment site, including the tunica muscularis and mucosa. The opposite side of the mesenteric attachment site was incised in order to prevent severance and damage of the blood vessel and minimize bleeding. When the incision site of the gastrointestinal tract was opened vertically, the mucosal surface of the gastrointestinal tract, as the food channel, became visible. When food digestion products were present they were wiped off with tissue paper. In order to more clearly observe the gastrointestinal tract mucosal surface, a 1% pronase solution was dropped onto the mucosal surface and was allowed to stand still for 15 minutes. This pronase treatment removed the mucus from the mucosal surface, rendering the cell structure more easily visible. Next, the pronase was removed from the mucosal surface and rinsed with physiological saline (PBS). A metal ring (outer diameter: 16 millimeters, inner diameter, 6 millimeters) was placed on a laboratory stage, and a rapid bonding adhesive (AronAlpha) was coated over the entire periphery of the surface on one side. Forceps were used to hold the rapid bonding adhesive-coated metal ring with the adhesive-coated surface facing downward, and it was set on the pronase-treated mucosal surface. During a period of about 5 minutes, the metal ring became anchored to the mucosa with the rapid bonding adhesive, and the region where the dye compound was to be applied was rinsed with PBS. […] FIG. 32 is a drawing for illustration of a stainability evaluation step for the aforementioned dye compounds. […] Z stack image). […] Both of the staining photographs of the normal site and cancer tumor site were taken under the same conditions.
# [4] = system: MDCK-GFP-Ras^V12 cells mixed with MDCK normal cells; assay: In vitro assay of MDCK-Ras^V12 cancerized cell small aggregates as a very early cancer model; format: cell-based, canine; conditions: for Staining of GFP-Ras^V12 positive cancerized cells versus MDCK normal cells: Ministry of Health, Labour and Welfare-approved food additives, 1 mg/ml, excitation 750, 800, 850, 900 nm, red fluorescence
# Procedure: The MDCK normal cells were cultured in a 10 cm dish, and the MDCK-GFP-Ras^V12 cells were cultured in a 6 cm dish. The culture solution used for the MDCK normal cells was DMEM (containing Phenol Red)+10% FBS+penicillin/streptomycin.
# The solution used for the MDCK-GFP-Ras^V12 cells was DMEM (containing Phenol Red)+10% FBS+penicillin/streptomycin+Zeocin (400 μg/ml)+blasticidin (5 μg/ml). […] The seeding was carried out using a DMEM+10% FBS+penicillin/streptomycin culture solution, to 1.0 to 3.0×10^4 cells per well of the 96-well dish. Tetracycline at a concentration of 2 μg/ml was added to the culture solution after 4 days when seeding was to 1.0×10^4 or after 1 day when seeding was to 3.0×10^4, and GFP-Ras^V12 was expressed, forming cancerized cell small aggregates among the MDCK normal cells (NPL 3). After 18 to 36 hours, the cells in each of the wells were rinsed 3 times with 200 μl of PBS, and then the Prestwick Chemical Library compounds and the Ministry of Health, Labour and Welfare-approved food additives, each diluted to 1 μM with a 100 μl volume of PBS, were added to the respective wells and taken up by the cells for 5 minutes at room temperature. They were then rinsed 3 times with 200 μl of PBS, and in certain cases further rinsed once with 100 μl of DMEM without Phenol Red, and observed under a multiphoton laser microscope.
# [5] = cited from earlier work; remark: listed apart in the source
# Large intestine = assay: Evaluation of dye compound stainability under multiphoton laser microscope, large intestine mucosal surface; format: in vivo; conditions: mucosal surface of mouse large intestine; 5 mg/ml for curcumin, 1 mg/ml for other dyes
# Procedure: Drinking water containing 2% (w/v) dextran sodium sulfate (DSS) was given to 8-week-old C57B6 mice (male, approximately 20 g) for 7 days. After intraperitoneal injection of 0.2 ml of 5% chloral hydrate for anesthesia, the mouse abdominal wall was incised vertically to about 1 cm, and the gastrointestinal tract was raised over the abdominal wall to about 1 cm. Blood flow to the gastrointestinal tract was maintained during this time by the blood vessel flowing into the mesenteric attachment site. The gastrointestinal tract was incised vertically to about 1 cm on opposite side of the mesenteric attachment site, including the tunica muscularis and mucosa. The opposite side of the mesenteric attachment site was incised in order to prevent severance and damage of the blood vessel and minimize bleeding. When the incision site of the gastrointestinal tract was opened vertically, the mucosal surface of the gastrointestinal tract, as the food channel, became visible. When food digestion products were present they were wiped off with tissue paper.
# In order to more clearly observe the gastrointestinal tract mucosal surface, a 1% pronase solution was dropped onto the mucosal surface and was allowed to stand still for 15 minutes. This pronase treatment removed the mucus from the mucosal surface, rendering the cell structure more easily visible. […]
# [6] = system: human gastric mucosa (normal site and stomach cancer site); assay: Staining of surgically excised fresh human gastric mucosa; conditions: laser power of 1%
# Source text: Similar staining also occurred with surgically excised fresh human gastric mucosa. […] The centers of the circular structures are the exits of the fundic glands. It was thus possible to confirm the characteristic of normal tissue whereby epithelial cells arrange in a circular manner without disparate sizes. […] The blackened elliptical portions in each cell are the nuclei.
# [7] = system: mouse tracheal epithelial cells; assay: Multiphoton laser microscope imaging of stained tracheal epithelial cells; conditions: laser power of 3%
# mucosal surfaces = assay: Photon dose necessary to obtain fluorescent images of dye-coated mucosal surfaces; format: in vivo, mouse; conditions: mucosal surfaces coated with dye
# [8] = system: mouse bladder epithelial cells; assay: Multiphoton laser microscope imaging of stained bladder epithelial cells; conditions: laser power of 3%
# Pluripotent hepatocytes = assay: Undifferentiated cell staining of pluripotent hepatocytes; format: cell-based
# Source text: Pluripotent stem cells such as iPS cells, ES cells or tissue-derived stem cells are considered promising for application and development in regenerative medicine, and for example, when a cell population is to be formed from iPS cells, differentiated into tissue cells that are destined to be transplanted, it is currently the case that iPS cell-derived differentiation-induced tissue cell populations partially contain undifferentiated cells that have not completely differentiated to the desired tissue cells, cells that have differentiated to cells other than the desired tissue cells, and the original iPS cells that have undergone essentially no differentiation. It has been pointed out that when such undifferentiated cells or original iPS cells are transplanted as is into the body, they can potentially become cancerated in the future. Thus, when an iPS cell-derived differentiation-induced tissue cell population is to be used for transplantation, undifferentiated cells or original iPS cells remaining in the transplanted cell population are preferably identified and confirmed, and also eliminated.
# [9] = without pronase treatment, cancer 2 to 4 millimeters in diameter
compound,measurement,setting,value
CC1=C(/C=C/C(C)=C/C=C/C(C)=C/C=C/C=C(C)/C=C/C=C(C)/C=C/C2=C(C)CCCC2(C)C)C(C)(C)CCC1 [β-Carotene],Cell group preferentially stained (epithelial cells/adenocytes or connective tissue/capillaries),[1],preferentially stained epithelial cells/adenocytes
same,LD50,"[2]; Rat, Oral",5000 mg/kg
"O=C1OC2(c3ccccc31)c1cc(I)c(O)c(I)c1Oc1c2cc(I)c(O)c1I [Red #3, erythrosine]",Staining of cancer lesion sites compared with normal mucosa,[3],stained cancer lesion sites much more intensely than normal mucosa
same,Cell group preferentially stained (epithelial cells/adenocytes or connective tissue/capillaries),[1],preferentially stained epithelial cells/adenocytes
same,Staining of GFP-Ras^V12 positive cancerized cells versus MDCK normal cells,[4],GFP-Ras^V12 positive cells were preferentially stained
same,Staining of GFP-Ras^V12 positive cancerized cells versus MDCK normal cells,[4]; listed as erythrosine,labeled GFP-Ras^V12-positive cancerized cell small aggregates more intensely than normal cells
same,LD50,"[5]; mouse, in vivo, po",6800 mg/kg
Oc1cc(O)c2cc(O)c(-c3cc(O)c(O)c(O)c3)[o+]c2c1 [Delphinidin],LD50,"[2]; rat, in vivo",1250 mg/kg
Oc1cc(O)c2cc(O)c(-c3ccc(O)c(O)c3)[o+]c2c1 [Cyanidin],LD50,"[2]; rat, in vivo",1500 mg/kg
COc1cc(/C=C/C(=O)CC(=O)/C=C/c2ccc(O)c(OC)c2)ccc1O [curcumin],Excitation by multiphoton laser and brightness of image,Large intestine,strongly excited by a multiphoton laser and provided bright images
same,Staining of cancer lesion sites compared with normal mucosa,[3],stained cancer lesion sites much more intensely than normal mucosa
same,Staining of cancer lesion site compared with normal mucosa,[3]; after 15 minutes treatment with 1% pronase MS,stained the cancer lesion site significantly more intensely than the normal mucosa
same,Staining of cancer lesion site compared with normal mucosa,[3]; [9],stained the cancer lesion site significantly more intensely than the normal mucosa
same,Staining of normal gastric mucosa site,[6],the circularly arranged normal epithelial cells are stained
same,Staining of stomach cancer site,[6],cancer cells are stained
same,Cell group preferentially stained (epithelial cells/adenocytes or connective tissue/capillaries),[1],intensely stained epithelial cells/adenocytes and faintly stained connective tissue/capillaries
same,Image quality of stained cells,[7],an image with sufficient brightness and contrast for diagnosis was obtained
same,Photon dose necessary to obtain fluorescent images compared to non-staining,mucosal surfaces,3%
same,Image quality of stained cells,[8],an image with sufficient brightness and contrast for diagnosis was obtained
O=C1/C(=C/c2ccc(O)c(O)c2)Oc2cc(O)ccc21 [Sulfuretin],Excitation by multiphoton laser and brightness of image,Large intestine,strongly excited by a multiphoton laser and provided bright images
same,Staining of cancer lesion sites compared with normal mucosa,[3],stained cancer lesion sites much more intensely than normal mucosa
same,Staining of cancer lesion site compared with normal mucosa,[3]; [9],stained the cancer lesion site significantly more intensely than the normal mucosa
same,Cell group preferentially stained (epithelial cells/adenocytes or connective tissue/capillaries),[1],intensely stained epithelial cells/adenocytes and faintly stained connective tissue/capillaries
same,LD50,"[5]; mouse, in vivo, po",300 mg/kg
same,Photon dose necessary to obtain fluorescent images compared to non-staining,mucosal surfaces,4%
"O=C([O-])c1c(Cl)c(Cl)c(Cl)c(Cl)c1-c1c2cc(Br)c(=O)c(Br)c-2oc2c(Br)c([O-])c(Br)cc12.[Na+].[Na+] [Red #104, phloxine]",Cell group preferentially stained (epithelial cells/adenocytes or connective tissue/capillaries),[1],preferentially stained epithelial cells/adenocytes
same,Cancer cell staining intensity relative to normal cell staining intensity,[4]; FIG. 19,6.7 times
same,Staining of GFP-Ras^V12 positive cancerized cells versus MDCK normal cells,[4],labeled GFP-Ras^V12-positive cancerized cell small aggregates more intensely than normal cells; also recorded: All GFP-Ras^V12 positive cells stained with Red #104
same,LD50,"[5]; Mouse, Intra-abdominal",310 mg/kg
same,Staining of pluripotent hepatocytes,Pluripotent hepatocytes,exhibit undifferentiated cell staining
"CCN(Cc1cccc(S(=O)(=O)[O-])c1)c1ccc(C(=C2C=CC(=[N+](CC)Cc3cccc(S(=O)(=O)[O-])c3)C=C2)c2ccc(O)cc2S(=O)(=O)[O-])cc1.[Na+].[Na+] [Green #3, Fast Green FCF]",Cell group preferentially stained (epithelial cells/adenocytes or connective tissue/capillaries),[1],some adenocytes and connective tissue/capillaries were strongly stained
same,Staining of GFP-Ras^V12 positive cancerized cells versus MDCK normal cells,[4],labeled GFP-Ras^V12-positive cancerized cell small aggregates more intensely than normal cells; also recorded: specific staining of cancer cells
same,LD50,"[2]; Rat, Oral",>2000 mg/kg
